Test results from patent US20170114128A1, “USE OF TGF-BETA ANTAGONISTS OF TREAT TYPE-2 DIABETES” (ALBERT EINSTEIN COLLEGE OF MEDICINE, INC., priority 2014, published 2017).
*1 amine or outer side, *2 acyl side, *3 side chain or, on linkers, in order; H or OH if unused. Where a SMILES comes first, the peptide text is derived from it. Bridges are numbered along the chain shown (N, C = ends). Roman numbers before positions name the chains, in order. [ ]: non-standard residue; d: D form. Actinocin(9to1) = Cc1c2oc3c(C)ccc(C(=O)[*:1])c3nc-2c(C(=O)[*:2])c(N)c1=O; NMeV = CN[C@H](C(=O)O)C(C)C; Sar = CNCC(=O)O

How the values were obtained:
[1] = test system: hypothalamic GT1-7 cells; test: IκBα mRNA levels in GT1-7 cells after TGF-β1 treatment; assay type: cell-based; details: transcription inhibitor added to TGF-β1-treated cells
Source text: TGF-β degrades IκBα mRNA to atypically activate NF-κB: RNA SGs/PBs have the function to degrade mRNAs by targeting the AU-rich element (AUE) at the 3′ untranslated region (UTR) (36-38). […] This information led to the suspicion that TGF-β could work to degrade IκBα mRNA. […] To test if TGF-β induced IκBα mRNA decay is accountable for the glucose metabolism disorder, an experiment was designed to study if the pro-diabetic effect of brain TGF-β excess could be reversed through directly increasing hypothalamic IκBα mRNA. Using an approach which was established previously (23), a lentiviral system was employed to deliver exogenous Iκbα mRNA into the mediobasal hypothalamus of chow-fed C57BL/6 mice, and indeed, this lentivirus-delivered Iκbα mRNA prevented TGF-β1 injection from activating hypothalamic NF-κB (FIG. 5f). Metabolic analysis confirmed that this treatment attenuated the effect of TGF-β1 from impairing insulin-dependent glucose control (FIG. 5g).
Cell culture. GT1-7 cells were cultured as described previously (14). Briefly, GT1-7 cells were maintained in Dulbecco's Modified Eagle's Medium (Invitrogen) with 10% fetal bovine serum (Hyclone) and penicillin/streptomycin (Invitrogen), at 37° C. in a humidified atmosphere containing 5% CO2. Cells were fasted in serum-free medium for an overnight period, and then were subjected to TGF-β1 treatment at the indicated dose and time course.

[2] = test system: C57BL/6 mice with HFD-induced obesity; test: Third-ventricle injection of TGFβ antagonist, GTT and ITT in mice with HFD-induced obesity; assay type: in vivo; details: HFD for 3 months; single injection in the third ventricle, overnight-fasted; vs vehicle; 2-hour treatment duration
Source text: (§1) Central TGFβ blockade reverses glucose disorder under obesity or aging: It was studied whether TGFβ blockade could be applied to the CNS in order to reverse glucose and insulin disorders under disease conditions. To address this question, a mouse model was employed with HFD-induced obesity and therefore glucose and insulin intolerance. In this study, C57BL/6 mice were maintained under a HFD vs. a chow for 3 months. Subsequently, TGFβ antagonist SB431542 vs. vehicle was administrated to overnight-fasted mice through pre-implanted cannula. […] In parallel, using aging paradigm, it was further asked if TGFβ blockade could be used to intervene with glucose and insulin disorders independently of HFD feeding. To address this question, a similar procedure was applied to young vs. old mice; both mice were maintained on a normal chow since weaning. As shown in FIG. 7e-h, aging was associated with impairment of glucose tolerance and insulin tolerance in control group. […] Altogether, central inhibition of TGFβ through a pharmacological approach acutely normalizes the brain function to improve glucose and insulin homeostasis and treat type-2 diabetes.
(§2) Animals. […] Food intake and body weight of mice were measured using a laboratory scale. […] Blood glucose levels during GTT and ITT were measured with LifeScan® blood glucose monitoring system. […]

[3] = test system: old mice maintained on a normal chow; test: Third-ventricle injection of TGFβ antagonist, GTT and ITT in aging paradigm; assay type: in vivo; details: hypothalamic third-ventricle injection
Source text: as §1, §2

Row | Compound | IκBα mRNA decay [1] | glucose intolerance (GTT) [2] | insulin intolerance (ITT) [2] | glucose intolerance (GTT) [3] | insulin intolerance (ITT) [3]
1 | Cc1c2oc3c(C)ccc(C(=O)N[C@@H]4C(=O)N[C@H](C(C)C)C(=O)N5CCC[C@H]5C(=O)N(C)CC(=O)N(C)[C@@H](C(C)C)C(=O)O[C@@H]4C)c3nc-2c(C(=O)N[C@@H]2C(=O)N[C@H](C(C)C)C(=O)N3CCC[C@H]3C(=O)N(C)CC(=O)N(C)[C@@H](C(C)C)C(=O)O[C@@H]2C)c(N)c1=O [actinomycin D, reference compound] (I: T[dV]P[Sar][NMeV] / II: T[dV]P[Sar][NMeV]; ester I:1-I:C, II:1-II:C; linker I:N-II:N via Actinocin(9to1)) | further accelerated |  |  |  | 
2 | NC(=O)c1ccc(-c2nc(-c3ccc4c(c3)OCO4)c(-c3ccccn3)[nH]2)cc1 [SB431542, 4-[4-(1,3-benzodioxol-5-yl)-5-(2-pyridinyl)-1H-imidazol-2-yl]benzamide] |  | significantly reduced | significantly reduced | significant reductions | significant reductions
